Test results from ChEMBL document CHEMBL4725218, “Deep Learning Enhancing Kinome-Wide Polypharmacology Profiling: Model Construction and Experiment Validation” (J Med Chem, 2020).

How the values were obtained:
[1] = biological target: Tyrosine-protein kinase FRK (Homo sapiens) (UniProt P42685); experiment: Inhibition of human PTK5 assessed as remaining enzyme activity at 1 uM
[2] = biological target: T1, Ephrin type-A receptor 8 (Homo sapiens) (UniProt P29322); experiment: Inhibition of human EphA8 assessed as remaining enzyme activity at 1 uM
T1 sequence (whole entry): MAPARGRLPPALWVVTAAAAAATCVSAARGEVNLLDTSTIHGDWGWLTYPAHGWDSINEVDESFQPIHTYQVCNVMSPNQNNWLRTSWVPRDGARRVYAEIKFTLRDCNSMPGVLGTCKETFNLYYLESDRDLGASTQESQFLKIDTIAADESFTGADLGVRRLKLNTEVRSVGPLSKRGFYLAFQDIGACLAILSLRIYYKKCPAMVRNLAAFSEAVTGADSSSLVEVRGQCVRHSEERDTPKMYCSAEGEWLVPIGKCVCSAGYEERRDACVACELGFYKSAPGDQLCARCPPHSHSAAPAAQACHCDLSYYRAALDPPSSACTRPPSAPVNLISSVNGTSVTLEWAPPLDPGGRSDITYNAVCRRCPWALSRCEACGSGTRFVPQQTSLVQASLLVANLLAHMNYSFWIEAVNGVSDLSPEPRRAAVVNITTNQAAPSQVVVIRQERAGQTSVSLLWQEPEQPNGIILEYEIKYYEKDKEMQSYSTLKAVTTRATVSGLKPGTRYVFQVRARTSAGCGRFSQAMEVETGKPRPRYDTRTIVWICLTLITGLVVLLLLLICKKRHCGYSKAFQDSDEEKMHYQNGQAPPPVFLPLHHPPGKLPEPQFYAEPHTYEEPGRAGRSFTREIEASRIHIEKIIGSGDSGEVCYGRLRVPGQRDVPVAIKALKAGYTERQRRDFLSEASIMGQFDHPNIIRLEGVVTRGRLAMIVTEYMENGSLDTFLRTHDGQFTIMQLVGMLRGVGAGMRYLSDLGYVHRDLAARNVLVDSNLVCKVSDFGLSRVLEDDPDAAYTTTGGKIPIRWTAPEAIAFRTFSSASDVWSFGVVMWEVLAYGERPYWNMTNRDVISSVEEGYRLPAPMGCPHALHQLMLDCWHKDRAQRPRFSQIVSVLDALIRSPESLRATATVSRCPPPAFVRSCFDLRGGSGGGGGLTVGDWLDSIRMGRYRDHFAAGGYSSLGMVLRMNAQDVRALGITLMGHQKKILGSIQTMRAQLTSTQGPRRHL

[3] = biological target: T2, Muscle, skeletal receptor tyrosine-protein kinase (Homo sapiens) (UniProt O15146); experiment: Inhibition of human MuSK assessed as remaining enzyme activity at 1 uM
T2 sequence (whole entry): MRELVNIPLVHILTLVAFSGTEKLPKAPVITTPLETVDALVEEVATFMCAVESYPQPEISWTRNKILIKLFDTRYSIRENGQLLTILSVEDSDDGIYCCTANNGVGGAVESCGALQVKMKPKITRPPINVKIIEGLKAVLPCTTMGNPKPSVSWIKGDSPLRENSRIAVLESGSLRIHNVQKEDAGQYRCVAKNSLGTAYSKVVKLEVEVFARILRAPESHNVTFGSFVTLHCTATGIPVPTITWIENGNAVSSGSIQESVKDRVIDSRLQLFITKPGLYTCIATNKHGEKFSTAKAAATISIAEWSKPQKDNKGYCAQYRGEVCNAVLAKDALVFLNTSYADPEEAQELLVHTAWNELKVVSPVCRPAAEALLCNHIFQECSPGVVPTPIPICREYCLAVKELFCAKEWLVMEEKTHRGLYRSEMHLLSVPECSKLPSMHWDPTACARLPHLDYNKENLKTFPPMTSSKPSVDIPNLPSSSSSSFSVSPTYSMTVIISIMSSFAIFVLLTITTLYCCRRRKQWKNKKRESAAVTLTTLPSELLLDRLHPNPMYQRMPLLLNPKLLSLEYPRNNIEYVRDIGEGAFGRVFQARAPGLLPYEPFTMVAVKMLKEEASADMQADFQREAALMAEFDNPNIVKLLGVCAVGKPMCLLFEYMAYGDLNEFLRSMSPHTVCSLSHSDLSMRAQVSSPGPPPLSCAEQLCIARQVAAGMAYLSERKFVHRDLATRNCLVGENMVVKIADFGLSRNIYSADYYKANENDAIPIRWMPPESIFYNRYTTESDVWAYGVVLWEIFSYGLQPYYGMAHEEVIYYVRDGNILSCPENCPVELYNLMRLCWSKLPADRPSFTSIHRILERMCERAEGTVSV

[4] = biological target: Serine/threonine-protein kinase 10 (Homo sapiens) (UniProt O94804); experiment: Inhibition of human LOK assessed as remaining enzyme activity at 1 uM
[5] = biological target: Platelet-derived growth factor receptor alpha (Homo sapiens) (UniProt P16234); experiment: Inhibition of human PDGFRAlpha assessed as remaining enzyme activity at 1 uM
Chain of Platelet-derived growth factor receptor alpha (Homo sapiens) (P16234 whole entry): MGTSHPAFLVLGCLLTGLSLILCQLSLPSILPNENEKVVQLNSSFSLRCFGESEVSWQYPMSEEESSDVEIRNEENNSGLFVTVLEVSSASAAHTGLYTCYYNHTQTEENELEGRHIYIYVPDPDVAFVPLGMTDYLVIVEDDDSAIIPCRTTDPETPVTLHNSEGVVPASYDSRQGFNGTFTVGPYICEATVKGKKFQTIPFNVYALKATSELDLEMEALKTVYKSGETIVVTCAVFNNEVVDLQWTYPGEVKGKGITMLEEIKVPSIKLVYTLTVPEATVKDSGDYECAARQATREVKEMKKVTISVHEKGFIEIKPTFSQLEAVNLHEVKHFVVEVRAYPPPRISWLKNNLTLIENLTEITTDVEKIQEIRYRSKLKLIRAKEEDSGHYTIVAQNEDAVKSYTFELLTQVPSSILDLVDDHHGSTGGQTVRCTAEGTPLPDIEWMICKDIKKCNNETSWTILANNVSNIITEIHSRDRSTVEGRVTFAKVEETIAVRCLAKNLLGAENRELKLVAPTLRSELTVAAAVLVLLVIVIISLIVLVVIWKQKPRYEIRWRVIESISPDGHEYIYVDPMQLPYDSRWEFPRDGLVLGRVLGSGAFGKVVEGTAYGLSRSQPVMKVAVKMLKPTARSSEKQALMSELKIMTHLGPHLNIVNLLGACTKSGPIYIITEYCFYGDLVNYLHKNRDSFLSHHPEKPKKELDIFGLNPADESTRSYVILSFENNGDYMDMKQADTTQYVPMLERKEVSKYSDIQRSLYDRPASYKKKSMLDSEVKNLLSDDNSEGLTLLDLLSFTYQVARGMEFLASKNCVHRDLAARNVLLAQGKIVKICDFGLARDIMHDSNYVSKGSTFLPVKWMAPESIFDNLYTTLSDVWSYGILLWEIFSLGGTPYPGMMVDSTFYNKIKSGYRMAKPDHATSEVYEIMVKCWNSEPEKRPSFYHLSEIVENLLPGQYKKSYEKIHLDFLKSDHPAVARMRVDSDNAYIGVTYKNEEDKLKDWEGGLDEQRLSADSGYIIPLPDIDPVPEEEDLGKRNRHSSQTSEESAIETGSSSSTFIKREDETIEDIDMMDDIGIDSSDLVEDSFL

[6] = biological target: Serine/threonine-protein kinase TAO1 (Homo sapiens) (UniProt Q7L7X3); experiment: Inhibition of human TAO1 assessed as remaining enzyme activity at 1 uM
[7] = biological target: Mitogen-activated protein kinase kinase kinase kinase 5 (Homo sapiens) (UniProt Q9Y4K4); experiment: Inhibition of human MAP4K5 assessed as remaining enzyme activity at 0.1 uM
[8] = biological target: BDNF/NT-3 growth factors receptor (Homo sapiens) (UniProt Q16620); experiment: Inhibition of human TRKB assessed as remaining enzyme activity at 0.1 uM
Chain of BDNF/NT-3 growth factors receptor (Homo sapiens) (Q16620 32-822 limits assumed): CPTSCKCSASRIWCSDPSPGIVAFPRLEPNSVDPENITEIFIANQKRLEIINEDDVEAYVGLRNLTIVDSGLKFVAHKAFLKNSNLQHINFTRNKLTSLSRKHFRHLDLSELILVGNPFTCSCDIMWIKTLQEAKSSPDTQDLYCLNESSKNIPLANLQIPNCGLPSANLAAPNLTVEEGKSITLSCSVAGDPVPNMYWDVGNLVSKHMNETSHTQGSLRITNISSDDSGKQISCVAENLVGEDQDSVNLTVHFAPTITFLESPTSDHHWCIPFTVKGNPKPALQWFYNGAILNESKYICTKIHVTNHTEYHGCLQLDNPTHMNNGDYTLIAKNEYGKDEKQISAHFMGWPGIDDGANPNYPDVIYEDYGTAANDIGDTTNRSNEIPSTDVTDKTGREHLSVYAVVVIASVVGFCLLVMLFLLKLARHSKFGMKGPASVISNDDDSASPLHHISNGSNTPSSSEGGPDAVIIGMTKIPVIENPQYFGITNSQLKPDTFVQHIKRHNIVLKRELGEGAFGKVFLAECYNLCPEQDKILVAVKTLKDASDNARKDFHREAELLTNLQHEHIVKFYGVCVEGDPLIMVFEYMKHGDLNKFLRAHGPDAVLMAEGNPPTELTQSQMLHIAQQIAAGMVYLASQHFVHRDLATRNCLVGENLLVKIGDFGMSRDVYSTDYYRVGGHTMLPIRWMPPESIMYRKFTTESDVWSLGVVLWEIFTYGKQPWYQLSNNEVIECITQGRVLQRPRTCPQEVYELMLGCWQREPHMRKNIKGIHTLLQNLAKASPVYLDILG

[9] = biological target: Serine/threonine-protein kinase B-raf (Homo sapiens) (UniProt P15056); experiment: Inhibition of human B-Raf assessed as remaining enzyme activity at 0.1 uM
[10] = biological target: Homeodomain-interacting protein kinase 2 (Homo sapiens) (UniProt Q9H2X6); experiment: Inhibition of human HIPK2 assessed as remaining enzyme activity at 0.1 uM
Chain of Homeodomain-interacting protein kinase 2 (Homo sapiens) (Q9H2X6 whole entry, looked up): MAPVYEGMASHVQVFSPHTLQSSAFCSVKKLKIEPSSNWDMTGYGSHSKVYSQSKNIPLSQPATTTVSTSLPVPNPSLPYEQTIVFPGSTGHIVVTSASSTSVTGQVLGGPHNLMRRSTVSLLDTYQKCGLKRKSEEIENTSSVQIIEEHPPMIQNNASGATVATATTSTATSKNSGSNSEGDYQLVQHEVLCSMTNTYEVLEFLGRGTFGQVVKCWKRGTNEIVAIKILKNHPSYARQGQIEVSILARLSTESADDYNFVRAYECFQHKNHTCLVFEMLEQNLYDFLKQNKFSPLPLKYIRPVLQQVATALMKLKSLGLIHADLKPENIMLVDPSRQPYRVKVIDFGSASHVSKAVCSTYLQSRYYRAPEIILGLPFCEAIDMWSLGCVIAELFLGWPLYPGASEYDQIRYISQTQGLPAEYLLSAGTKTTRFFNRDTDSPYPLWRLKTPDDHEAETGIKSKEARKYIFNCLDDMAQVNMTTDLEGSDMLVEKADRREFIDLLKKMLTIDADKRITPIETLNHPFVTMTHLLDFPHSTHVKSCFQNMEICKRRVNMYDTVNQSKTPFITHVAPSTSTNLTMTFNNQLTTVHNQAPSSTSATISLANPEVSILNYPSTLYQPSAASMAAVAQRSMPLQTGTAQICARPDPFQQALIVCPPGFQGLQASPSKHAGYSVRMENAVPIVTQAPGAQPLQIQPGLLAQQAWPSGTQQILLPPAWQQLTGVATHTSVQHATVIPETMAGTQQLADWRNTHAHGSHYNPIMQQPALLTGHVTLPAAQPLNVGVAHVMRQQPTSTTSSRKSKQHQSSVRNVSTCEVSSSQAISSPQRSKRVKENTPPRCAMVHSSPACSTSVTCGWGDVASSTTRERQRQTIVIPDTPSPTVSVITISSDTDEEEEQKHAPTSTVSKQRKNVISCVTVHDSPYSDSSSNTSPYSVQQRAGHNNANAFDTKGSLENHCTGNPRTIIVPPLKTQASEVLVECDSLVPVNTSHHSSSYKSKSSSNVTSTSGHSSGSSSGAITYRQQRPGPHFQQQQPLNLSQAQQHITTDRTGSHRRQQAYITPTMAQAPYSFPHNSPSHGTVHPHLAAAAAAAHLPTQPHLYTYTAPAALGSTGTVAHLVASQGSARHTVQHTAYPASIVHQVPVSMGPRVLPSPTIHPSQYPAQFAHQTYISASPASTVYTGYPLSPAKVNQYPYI

[11] = biological target: T2, Muscle, skeletal receptor tyrosine-protein kinase (Homo sapiens); experiment: Inhibition of human MuSK assessed as remaining enzyme activity at 0.1 uM
[12] = biological target: RAF proto-oncogene serine/threonine-protein kinase (Homo sapiens) (UniProt P04049); experiment: Inhibition of human RAF1 assessed as remaining enzyme activity at 0.01 uM
Chain of RAF proto-oncogene serine/threonine-protein kinase (Homo sapiens) (P04049 whole entry): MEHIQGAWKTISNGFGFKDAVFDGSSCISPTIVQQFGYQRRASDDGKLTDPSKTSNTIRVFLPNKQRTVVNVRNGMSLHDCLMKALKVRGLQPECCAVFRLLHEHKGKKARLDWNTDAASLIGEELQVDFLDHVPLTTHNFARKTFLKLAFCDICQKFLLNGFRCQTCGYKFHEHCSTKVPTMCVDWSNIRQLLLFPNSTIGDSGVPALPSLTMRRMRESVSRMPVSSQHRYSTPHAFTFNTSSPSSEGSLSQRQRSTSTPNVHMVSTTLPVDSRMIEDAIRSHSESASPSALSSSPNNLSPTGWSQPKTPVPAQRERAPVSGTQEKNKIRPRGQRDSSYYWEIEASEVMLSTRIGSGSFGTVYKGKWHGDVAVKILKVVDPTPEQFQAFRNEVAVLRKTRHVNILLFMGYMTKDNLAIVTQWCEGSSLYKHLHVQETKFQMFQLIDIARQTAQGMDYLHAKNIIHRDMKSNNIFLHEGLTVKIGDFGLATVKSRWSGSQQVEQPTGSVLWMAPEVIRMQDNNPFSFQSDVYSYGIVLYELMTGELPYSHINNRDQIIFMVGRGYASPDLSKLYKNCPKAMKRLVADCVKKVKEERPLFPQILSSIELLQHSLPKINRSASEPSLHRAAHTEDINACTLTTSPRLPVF

[13] = biological target: Vascular endothelial growth factor receptor 2 (Homo sapiens) (UniProt P35968); experiment: Inhibition of human VEGFR2 assessed as remaining enzyme activity at 0.01 uM
[14] = biological target: Mitogen-activated protein kinase 14 (Homo sapiens) (UniProt Q16539); experiment: Inhibition of human p38alpha assessed as remaining enzyme activity at 0.01 uM
[15] = biological target: Tyrosine-protein kinase Blk (Mus musculus) (UniProt P16277); experiment: Inhibition of mouse BLK assessed as remaining enzyme activity at 0.01 uM
Chain of Tyrosine-protein kinase Blk (Mus musculus) (P16277 whole entry): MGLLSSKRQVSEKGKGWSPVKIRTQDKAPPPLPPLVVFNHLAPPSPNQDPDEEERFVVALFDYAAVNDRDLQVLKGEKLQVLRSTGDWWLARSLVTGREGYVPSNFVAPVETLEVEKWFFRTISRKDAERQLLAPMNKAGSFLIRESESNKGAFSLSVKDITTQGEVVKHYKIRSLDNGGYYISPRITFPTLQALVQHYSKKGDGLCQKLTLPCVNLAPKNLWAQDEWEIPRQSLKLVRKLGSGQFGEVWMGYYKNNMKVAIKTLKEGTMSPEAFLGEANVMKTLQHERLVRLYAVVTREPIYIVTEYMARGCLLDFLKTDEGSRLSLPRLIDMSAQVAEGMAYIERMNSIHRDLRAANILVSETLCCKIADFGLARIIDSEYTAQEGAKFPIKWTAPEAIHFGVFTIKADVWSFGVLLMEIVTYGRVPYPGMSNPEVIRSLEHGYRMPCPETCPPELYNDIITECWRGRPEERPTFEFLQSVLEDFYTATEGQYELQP

[16] = biological target: Tyrosine-protein kinase ABL1 (Homo sapiens) (UniProt P00519); experiment: Inhibition of human ABL assessed as remaining enzyme activity at 0.01 uM
[17] = biological target: Homeodomain-interacting protein kinase 3 (Homo sapiens) (UniProt Q9H422); experiment: Inhibition of human HIPK3 assessed as remaining enzyme activity at 0.01 uM
[18] = biological target: Homeodomain-interacting protein kinase 2 (Homo sapiens) (UniProt Q9H2X6); experiment: Inhibition of human HIPK2 assessed as remaining enzyme activity at 0.01 uM

Chain of Tyrosine-protein kinase FRK (Homo sapiens) (P42685 whole entry): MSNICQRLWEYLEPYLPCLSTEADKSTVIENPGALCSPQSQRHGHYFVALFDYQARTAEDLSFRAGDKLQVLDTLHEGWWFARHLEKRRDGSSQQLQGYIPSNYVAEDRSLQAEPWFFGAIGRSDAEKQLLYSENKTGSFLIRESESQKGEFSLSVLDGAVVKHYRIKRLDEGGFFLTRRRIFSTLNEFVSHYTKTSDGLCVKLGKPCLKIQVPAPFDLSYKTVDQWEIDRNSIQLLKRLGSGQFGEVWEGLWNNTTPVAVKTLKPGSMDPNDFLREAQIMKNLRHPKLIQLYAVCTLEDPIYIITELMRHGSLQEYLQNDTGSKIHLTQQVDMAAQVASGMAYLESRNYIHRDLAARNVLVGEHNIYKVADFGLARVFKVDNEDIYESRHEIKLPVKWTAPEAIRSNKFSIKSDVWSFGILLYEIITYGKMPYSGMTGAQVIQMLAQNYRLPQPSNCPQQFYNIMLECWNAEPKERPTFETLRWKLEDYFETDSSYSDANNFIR

Activity [1]: 3%
Activity [2]: 5%
Activity [3]: 21%
Activity [4]: 34%
Activity [5]: 35%
Activity [6]: 42%
Activity [7]: 37%
Activity [8]: 53%
Activity [9]: 66%
Activity [10]: 61%
Activity [11]: 92%
Activity [12]: 93%
Activity [13]: 68%
Activity [14]: 100%
Activity [15]: 52%
Activity [16]: 79%
Activity [17]: 103%
Activity [18]: 96%
SMILES: CNC(=O)c1cc(Oc2ccc(NC(=O)Nc3ccc(Cl)c(C(F)(F)F)c3)c(F)c2)ccn1
